Among the data in PubChem BioAssay AID1117361 (Southern Research Institute, 2015) are IC50 values, retold here.

Each structure is given as a SMILES string.

The target in this test is Protein Tat (Human immunodeficiency virus type 1 group M subtype B (isolate HXB2)) (UniProt P04608). Nature of the test: inhibitors of Tat binding to TAR RNA, dose response, counter-screen for Vif-APOBEC3G degradation inhibitor project, biochemical, fluorescence polarization, FAM-labeled TAR RNA (AID 1117361). Background: A counterscreen serves to expose hits that act by an unwanted route or on another target.
Chain of Protein Tat (Human immunodeficiency virus type 1 group M subtype B (isolate HXB2)) (P04608 whole entry, looked up): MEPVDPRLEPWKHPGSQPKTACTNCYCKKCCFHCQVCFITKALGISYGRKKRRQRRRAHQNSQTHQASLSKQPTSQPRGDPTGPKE
For `CC1(C)N([O-])c2cc([N+](=O)[O-])ccc2[N+]1=O`, the IC50 – broadly, the concentration that inhibits the measured activity by half – is 61.3 µM.

As to `CNc1cccccc1=S`, the IC50 is 4.41 µM.

As to `Cc1cc(/C=C2\C(=O)NC(=O)N(c3cccc(F)c3)C2=O)c(C)n1-c1cc(C(=O)O)cc(C(=O)O)c1`, the IC50 is 2.95 µM.

Consider `CN1C(=O)/C(=C/C=C/c2ccco2)C(=O)NC1=S`, for which the IC50 was 11.2 µM.

In the case of `Cc1ccc(/C=C/C(=O)Nc2ncc(C)s2)o1`, the half-maximal inhibitory concentration (IC50) was 16 µM.

For `CC1(CCl)N([O-])C2=C(CCCC2)[N+]1=O` (configuration not stated), the IC50 is 44.6 µM.

For `CC(C)N1C(=O)CC(Nc2ccc(N3CCOCC3)cc2)C1=O` (configuration not stated), the IC50 was 16 µM.

In the case of `COC1=C(N)C(=O)c2nc(-c3nc(C(=O)O)c(C)c(-c4ccc(OC)c(OC)c4O)c3N)ccc2C1=O`, the IC50 is 42.1 µM.

Take `O=C1C=C(N2CC2)c2ccccc2C1=O`: the IC50 was 80.9 µM.

Turning to `CC(=O)c1sc2nc(-c3ccco3)ccc2c1N`, the IC50 is 4.64 µM.

Regarding `O=C(O)CCc1ccc(S(=O)(=O)Nc2cc(C(F)(F)F)ccc2N2CCCC2)cc1`, the IC50 is 68.2 µM.

Turning to `O=C(O)CCc1ccc(-c2cccs2)n1-c1ccc(C(=O)O)cc1`, the IC50 is 45.6 µM.

On to `CCN1C(=O)/C(=C\c2ccco2)C(C(=O)OC)=C1C`, for which the IC50 was 81.8 µM.

Take `COc1ccc(NC(=O)N2c3ccc(OC)cc3C(C)=CC2(C)C)cc1`: the IC50 was 3.29 µM.

With `COC/C=C/C1=CC2=CC(=O)C(C)(OC(=O)c3ccco3)C(=O)C2=CO1` (configuration not stated), the IC50 was 7.47 µM.

As to `O=c1c(-c2cc3ccccc3o2)[n+]([O-])c2ccccc2n1OCc1ccccn1`, the IC50 is 34.5 µM.

With `C=CCn1c(COc2ccc(F)cc2)nnc1SCC(=O)NC(=O)NCc1ccco1`, the 50% inhibitory concentration (IC50) was 93.8 µM.

Turning to `CC(C)(CS(=O)(=O)[O-])NC(=O)CC[N+](C)(C)CCO`, the IC50 was 17.5 µM.

Take `Cn1c(=O)c2c(ncn2CC(=O)N/N=C/C=C/c2ccco2)n(C)c1=O`: the IC50 is 17.1 µM.

As for `O=C(CSc1nc2ccccc2n1CCc1ccccc1)c1ccc(O)c(O)c1`, the IC50 is 8.81 µM.

`Cc1ccc(N2C(=O)/C(=C/c3ccc(CN(CCC#N)S(C)(=O)=O)o3)C(=O)NC2=S)cc1`: the IC50 is 90 µM.

Regarding `COC(=O)c1ccccc1NC(=O)C1CCCC1`, the IC50 was 4.92 µM.

As to `CNc1ccc(Br)cc(C(=O)/C=C/c2cccc(OC)c2OC)c1=O`, the half-maximal inhibitory concentration (IC50) is 8 µM.

Take `Cc1ccc(-n2nc(C)c(C3C(C#N)=C(N)Oc4c3c(=O)oc3ccccc43)c2Cl)cc1` (configuration not stated): the IC50 is 25.2 µM.

Consider `CN(C)c1ccc(N2C(=O)CC(Nc3ccc(N4CCOCC4)cc3)C2=O)cc1` (configuration not stated), for which the IC50 is 9.99 µM.

Turning to `O=C(NCCO)Nc1ccc2nc(-c3ccco3)c(-c3ccco3)nc2c1`, the concentration for half-maximal inhibition (IC50) is 1.76 µM.

As to `CN(CCC#N)C(=O)COC(=O)c1c2c(nc3ccccc13)/C(=C\c1ccco1)CC2`, the IC50 is 79.8 µM.

As for `Cc1ccc(C(=O)Nc2ccc(O)c(C(=O)O)c2)o1`, the IC50 is 19.4 µM.

Take `NN=C1C(Cl)=C(Cl)C(Cl)=C1Cl`: the IC50 was 62.9 µM.

As to `Cc1cccc2cc(-c3ccccc3)c(-c3ccccc3)c[n+]12`, the IC50 is 15 µM.

For the compound `O=c1nc2s/c(=C\c3ccco3)c(=O)n2nc1Cc1ccccc1`, the IC50 is 5.21 µM.

Take `COC(=O)c1ccc(C(=O)OC)c(NC(=O)Cc2cccs2)c1`: the IC50 was 64.8 µM.

For the compound `O=C1NC(=S)SC1=C1CCCC1`, the IC50 was 6.59 µM.

As to `Cc1cc(-c2csc(NC(=O)c3ccc(C#N)cc3)n2)c(C)n1Cc1ccco1`, the IC50 is 16.7 µM.

Regarding `CCOC(=O)CSc1nncc2ccc(OC)c(OC)c12`, the IC50 is 56.6 µM.

With `COc1cc(/C=C2/C(=O)c3cccc([N+](=O)[O-])c3C2=O)c(Br)cc1O`, the IC50 is 96.5 µM.

In the case of `COc1cccc2c1NC(C(=O)O)C1CC=CC21` (configuration not stated), the IC50 was 1.87 µM.

`Cc1cc(C(=O)CSc2nc3ccccc3c(=O)[nH]2)c(C)n1C`: the IC50 was 49.2 µM.

`CC[n+]1ccc(C)c2cc(P(=O)(c3ccccc3)c3ccccc3)ccc21`: the half-maximal inhibitory concentration (IC50) was 72.9 µM.

Regarding `CC(=C/c1ccco1)/C=N/NC(=O)Cc1cccn1C`, the IC50 was 10.7 µM.

For `O=C(O)CC(C(=O)O)N1C(=O)/C(=C/C=C/c2ccco2)SC1=S` (configuration not stated), the IC50 is 1.33 µM.

On to `CNc1c(C(=O)O)ccc2c1C(=O)c1ccccc1C2=O`, for which the concentration for half-maximal inhibition (IC50) was 21.9 µM.

As to `O=C(CSc1nc(-c2ccco2)cc(C(F)(F)F)n1)N1CCc2ccccc2C1`, the half-maximal inhibitory concentration (IC50) was 35.2 µM.

For the compound `CC(=O)Nc1ccc(S(=O)(=O)Nc2nc3ccccc3nc2Nc2ccc(C(=O)O)c(O)c2)cc1`, the IC50 is 32.2 µM.

Take `O=[N+]([O-])c1c(NCCO)cc(Sc2nc3ccccc3s2)c2nonc12`: the IC50 is 90.1 µM.

`O=C(NC(=S)Nc1cccc(S(=O)(=O)NC2=NCCC2)c1)c1cc(-c2ccco2)nc2ccccc12`: the half-inhibitory concentration (IC50) was 8.04 µM.

For `Cc1ccc(-n2c(-c3cc(-c4ccco4)[nH]n3)n[nH]c2=S)c(Br)c1`, the half-maximal inhibitory concentration (IC50) is 6.09 µM.

For `CC(=O)C1=C(C)NC(C)=C(C(C)=O)C1c1cccs1`, the IC50 is 91.4 µM.

Regarding `CC(=O)NN1C(=O)/C(=C\c2ccc(Br)o2)SC1=S`, the IC50 was 4.82 µM.

Consider `O=C(CN1CCN(S(=O)(=O)c2ccc(Cl)s2)CC1)NCc1ccc(Cl)cc1`, for which the IC50 is 23.2 µM.

Turning to `COC/C=C/C1=CC2=CC(=O)C(C)(OC(=O)CCC(=O)OC)C(=O)C2=CO1` (configuration not stated), the IC50 is 8.1 µM.

`C=CCn1c(C)cc(-c2csc(N)n2)c1C`: the IC50 was 5.49 µM.

As to `O=S(=O)(Nc1nccs1)c1ccc(Nc2nnc(-c3ccccc3)c3ccccc23)cc1`, the IC50 is 47.7 µM.

Regarding `CCOC(=O)Cn1nnnc1C(C(C)C)N(Cc1cc2c(C)cc(C)cc2[nH]c1=O)C1CCCC1` (configuration not stated), the IC50 was 67.6 µM.

As to `CN(C)N1C(N)=C(C#N)C(c2cccnc2)C2=C1CCCC2=O` (configuration not stated), the IC50 is 15.3 µM.

With `CCC1S/C(=C(\C#N)C(=O)NCc2ccco2)N(c2ccc(F)cc2)C1=O` (configuration not stated), the IC50 is 14.9 µM.

For `CCOC1(OCC)N=C(N)C2(C#N)C(c3cccc(OC)c3OC)C12C#N` (configuration not stated), the IC50 is 1.59 µM.

For the compound `c1cnc(N2CCN(c3cnccn3)CC2)nc1`, the IC50 is 71.9 µM.

Consider `O=C1/C(=C/C=C/c2ccco2)SC(=S)N1NS(=O)(=O)c1ccccc1`, for which the IC50 was 2.48 µM.

For `CC1CCN(S(=O)(=O)c2ccc(C(=O)NCc3ccc4c(c3)OCO4)cc2)CC1`, the IC50 was 95.7 µM.

In the case of `CCn1c2ccccc2c2cc(NC(=O)c3ccccc3[N+](=O)[O-])ccc21`, the IC50 is 43.8 µM.

In the case of `O=C(Nc1ccccc1N1CCCC1)c1ccc(Br)o1`, the IC50 is 59.6 µM.

As for `C=CCn1c(C)c(C(C)=O)c(N2CCN(c3ccccc3)CC2)nc1=S`, the half-maximal inhibitory concentration (IC50) was 7.51 µM.

Take `O=C(O)c1ccc(-n2cccc2/C=C2/NC(=O)N(c3ccccc3)C2=O)cc1`: the IC50 is 15.7 µM.

`C[c-]1[c-](C)[c-](C)[c-](C)[c-]1C.[Fe].c1cc2nccc(N3CCCC3)[c-]2c1` (configuration not stated): the IC50 is 2.81 µM.

For `Oc1ccc(N=Cc2sc3ccccc3c2Cl)cc1`, the IC50 was 62.3 µM.

On to `CC(C)CC(=O)Nc1nnc(-c2ccco2)s1`, for which the concentration for half-maximal inhibition (IC50) was 53.8 µM.

`CNc1ccccc(C(=O)/C=C/c2ccccc2OC)c1=O`: the IC50 is 6.69 µM.

On to `O=C(NCc1ccccc1Cl)c1csc2c1CCCCC2`, for which the IC50 is 27.2 µM.

For the compound `CNc1ccc(Br)cc(C(=O)/C=C/c2ccc(OC)cc2OC)c1=O`, the IC50 is 52 µM.

`O=C(OCC1O[C@@H](OC(=O)c2cc(O)c(O)c(O)c2)[C@@H](OC(=O)c2cc(O)c(O)c(O)c2)[C@@H](OC(=O)c2cc(O)c(O)c(O)c2)[C@@H]1OC(=O)c1cc(O)c(O)c(O)c1)c1cc(O)c(O)c(O)c1` (some centres not stated): the IC50 was 25.4 µM.

Regarding `CCOC(=O)CNc1ccc2c(c1)OCO2`, the half-maximal inhibitory concentration (IC50) was 1.47 µM.

In the case of `CC(C)c1ccc(N2C(=O)NC(=O)/C(=C\C=C\c3ccco3)C2=O)cc1`, the IC50 was 34.2 µM.

For `FC(F)(F)c1cc(-c2ccco2)nc(NCc2ccco2)n1`, the half-inhibitory concentration (IC50) is 28.5 µM.

For `O=c1oc2c3c4c(cc2s1)CCCN4CCC3`, the IC50 is 26 µM.

Regarding `O=C1NC(=S)S/C1=C\C=C\c1ccc([N+](=O)[O-])o1`, the IC50 was 2.76 µM.

Take `O=C(O)C(Cc1ccccc1)N1C(=O)/C(=C/C=C/c2ccco2)SC1=S` (configuration not stated): the IC50 was 1.26 µM.

`O=C(O)c1ccc2c(c1)[C@@H]1C=CC[C@@H]1[C@H](c1ccccn1)N2`: the IC50 was 7.1 µM.

Regarding `Oc1ccc(NCc2cccc(OCc3ccc(F)cc3)c2)cc1`, the IC50 was 68.7 µM.

For the compound `C[n+]1cccc2cccc([O-])c21`, the IC50 is 13.7 µM.

On to `CNc1ccccc(-c2ccc3cc4c(cc3n2)OCO4)c1=O`, for which the IC50 was 2.22 µM.

In the case of `CCc1c(C)sc(NC(=O)OC)c1C(=O)N1CCCCC1`, the half-inhibitory concentration (IC50) was 30.2 µM.

For `O=C1/C(=C/C=C/c2ccco2)SC(=S)N1c1ccc(O)cc1`, the IC50 was 19.1 µM.

Take `O=C(O)c1cc(N2N=C(C(F)(F)F)/C(=C/C=C/c3ccco3)C2=O)ccc1Cl`: the IC50 is 0.616 µM.

For `O=C1CC(c2ccco2)CC(O)=C1C=Nc1ccc(Br)cc1` (configuration not stated), the 50% inhibitory concentration (IC50) was 77.6 µM.

Take `O=C(O)c1ccc(-n2cccc2/C=N\NC(=O)c2cc3cc(Br)ccc3o2)cc1`: the IC50 was 13.8 µM.

For `COCCCNC(=O)/C(C#N)=C/c1ccc(OCC(=O)O)c(OC)c1`, the IC50 is 34.4 µM.

Take `CCn1c(C)nc2cc(C(=O)N/N=C/c3ccc(O)c(O)c3O)ccc21`: the IC50 was 15.3 µM.

Turning to `CC(=O)OCCCNc1cc(Sc2nc3ccccc3s2)c2nonc2c1[N+](=O)[O-]`, the IC50 was 3.41 µM.

Take `O=C(O)C[C@@H]1C(=O)O[C@@H]2C(COC(=O)c3cc(O)c(O)c(O)c3)O[C@@H](OC(=O)c3cc(O)c(O)c(O)c3)[C@@H](OC(=O)c3cc(O)c(O)c4c3[C@H]1[C@H](O)C(=O)O4)[C@H]2OC(=O)c1cc(O)c(O)c(O)c1` (some centres not stated): the IC50 is 0.556 µM.

For `O=C(Nc1nnc(C2CCCO2)s1)c1cccs1` (configuration not stated), the IC50 was 98.8 µM.

With `Oc1cc2c(cc1O)C1c3ccc(O)c(O)c3OCC1(O)C2` (configuration not stated), the IC50 is 11.7 µM.

Take `Cc1cc(NC(=O)CCNS(=O)(=O)c2cc(Br)cnc2N)ccc1Br`: the 50% inhibitory concentration (IC50) is 93.7 µM.

On to `COC(=O)CCCC(=O)Nc1c(F)c(F)c(F)c(F)c1F`, for which the IC50 was 78.2 µM.

`COc1ccccc1-n1c(-c2cc(-c3ccco3)[nH]n2)n[nH]c1=S`: the IC50 was 5.36 µM.

In the case of `Cc1c(O)cc2c(c1O)C(=O)CC(c1ccc(O)cc1)O2` (configuration not stated), the IC50 is 37.2 µM.

For `NC(=O)Cn1c(=O)n(Cc2ccco2)c(=O)c2c3c(sc21)CCCCC3`, the concentration for half-maximal inhibition (IC50) was 15.5 µM.
